Each structure is given as a SMILES string. Toxic doses and inconclusive results are not listed.

This experiment has as its system L1210 leukemia ip in BDF1 mice, survival T/C. The experiment is described as follows: NCI In Vivo Anticancer Drug Screen. Data for tumor model L1210 Leukemia (intraperitoneal) in B6D2F1 (BDF1) mice. To be noted: endpoint: mean survival time, higher = longer survival. Summed up:
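Read-out is survival time, reported as the treated-group measurement over the vehicle-control measurement.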

Setting [1] is: dose: 100.0 mg/kg/injection, schedule: Q01DX001 (ip), vehicle: saline.
Setting [2] is: dose: 200.0 mg/kg/injection, schedule: Q01DX001 (ip), vehicle: saline.
The mark [3] stands for this setting: dose: 100.0 mg/kg/injection, schedule: Q01DX009 (ip), vehicle: Klucel (hydroxypropylcellulose) (HPC).
Where [4] appears, read: dose: 100.0 mg/kg/injection, schedule: Q04DX003 (ip), vehicle: Klucel (hydroxypropylcellulose) (HPC).
Setting [5] is: dose: 200.0 mg/kg/injection, schedule: Q01DX009 (ip), vehicle: Klucel (hydroxypropylcellulose) (HPC).
Where [6] appears, read: dose: 200.0 mg/kg/injection, schedule: Q04DX003 (ip), vehicle: Klucel (hydroxypropylcellulose) (HPC).
The mark [7] stands for this setting: dose: 400.0 mg/kg/injection, schedule: Q01DX009 (ip), vehicle: Klucel (hydroxypropylcellulose) (HPC).
Where [8] appears, read: dose: 400.0 mg/kg/injection, schedule: Q04DX003 (ip), vehicle: Klucel (hydroxypropylcellulose) (HPC).
[9] abbreviates: dose: 50.0 mg/kg/injection, schedule: Q01DX001 (ip), vehicle: saline.
The mark [10] stands for this setting: dose: 400.0 mg/kg/injection, schedule: Q01DX001 (ip), vehicle: saline.
The mark [11] stands for this setting: dose: 100.0 mg/kg/injection, schedule: Q01DX009 (ip), vehicle: saline with Tween-80.
Setting [12] is: dose: 200.0 mg/kg/injection, schedule: Q01DX009 (ip), vehicle: saline with Tween-80.
The mark [13] stands for this setting: dose: 100.0 mg/kg/injection, schedule: Q04DX003 (ip), vehicle: saline.
The mark [14] stands for this setting: dose: 200.0 mg/kg/injection, schedule: Q04DX003 (ip), vehicle: saline.
Where [15] appears, read: dose: 400.0 mg/kg/injection, schedule: Q04DX003 (ip), vehicle: saline.

On to `Cc1cc(NS(=O)(=O)c2ccc(N=Nc3c(N)[nH]c(=S)[nH]c3=O)cc2)nc(C)n1`, for which the T/C reads like this: under setting [1], 96 % of control; under setting [2], 100 % of control.

For `O=C1OC(=O)C2C3C=CC(O3)C12` (stereo not drawn), the T/C is, setting by setting: (dose: 6.25 mg/kg/injection, schedule: Q01DX009 (ip), vehicle: saline) 97 % of control; (dose: 10.0 mg/kg/injection, schedule: Q04DX003 (ip), vehicle: saline with Tween-80) 96 % of control; (dose: 12.5 mg/kg/injection, schedule: Q01DX009 (ip), vehicle: saline with Tween-80) 111 % of control; (dose: 12.5 mg/kg/injection, schedule: Q01DX009 (ip), vehicle: saline) 96 % of control; (dose: 20.0 mg/kg/injection, schedule: Q04DX003 (ip), vehicle: saline with Tween-80) 100 % of control; (dose: 25.0 mg/kg/injection, schedule: Q01DX009 (ip), vehicle: saline with Tween-80) 108 % of control. Also, the T/C is 95 % of control (dose: 25.0 mg/kg/injection, schedule: Q01DX009 (ip), vehicle: saline); 94 % of control (dose: 40.0 mg/kg/injection, schedule: Q04DX003 (ip), vehicle: saline with Tween-80); 95 % of control (dose: 50.0 mg/kg/injection, schedule: Q01DX009 (ip), vehicle: saline with Tween-80).

Take `Cc1c(Cl)cccc1NC(=O)C(c1ccccc1)c1ccccc1`: the T/C is, setting by setting: under setting [3], 89 % of control; under setting [4], 101 % of control; under setting [5], 94 % of control; under setting [6], 86 % of control; under setting [7], 93 % of control; under setting [8], 91 % of control.

Regarding `CCOC1(OCC)C(Cl)=C(Cl)C(Cl)=C1Cl`, the T/C is 108 % of control (dose: 25.0 mg/kg/injection, schedule: Q01DX005 (ip), vehicle: Klucel (hydroxypropylcellulose) (HPC)); 110 % of control (dose: 25.0 mg/kg/injection, schedule: Q01DX009 (ip), vehicle: Klucel (hydroxypropylcellulose) (HPC)); 104 % of control (dose: 25.0 mg/kg/injection, schedule: Q04DX002 (ip), vehicle: Klucel (hydroxypropylcellulose) (HPC)); 102 % of control (dose: 50.0 mg/kg/injection, schedule: Q01DX005 (ip), vehicle: Klucel (hydroxypropylcellulose) (HPC)); 96 % of control (dose: 50.0 mg/kg/injection, schedule: Q01DX009 (ip), vehicle: Klucel (hydroxypropylcellulose) (HPC)); 104 % of control (dose: 50.0 mg/kg/injection, schedule: Q04DX002 (ip), vehicle: Klucel (hydroxypropylcellulose) (HPC)). In addition, the T/C (dose: 100.0 mg/kg/injection, schedule: Q01DX005 (ip), vehicle: Klucel (hydroxypropylcellulose) (HPC)) was 97 % of control.

With `Cc1nnc2[nH]c(=O)[nH]c(=O)c2n1`, the T/C under setting [9] was 98 % of control, the T/C under setting [1] was 104 % of control, the T/C under setting [2] was 101 % of control and the T/C under setting [10] is 98 % of control.

Consider `CCOc1c(N2CCOCC2)c(=O)c1=O`, for which the T/C by setting is: under setting [11], 103 % of control; (dose: 100.0 mg/kg/injection, schedule: Q04DX003 (ip), vehicle: saline with Tween-80) 93 % of control; under setting [12], 97 % of control; (dose: 200.0 mg/kg/injection, schedule: Q04DX003 (ip), vehicle: saline with Tween-80) 101 % of control; (dose: 400.0 mg/kg/injection, schedule: Q01DX009 (ip), vehicle: saline with Tween-80) 91 % of control; (dose: 400.0 mg/kg/injection, schedule: Q04DX003 (ip), vehicle: saline with Tween-80) 93 % of control.

Take `CCOC(=O)N1C2c3ccccc3C3C(C21)N3C(=O)OCC` (stereo not drawn): the T/C was 105 % of control under setting [1], 102 % of control under setting [2] and 108 % of control under setting [10].

As to `Cc1ccc(S(=O)(=O)NC(=O)N(CCCl)N=O)cc1`, the T/C is 113 % of control (dose: 10.0 mg/kg/injection, schedule: Q01DX001 (ip), vehicle: other); 216 % of control (dose: 40.0 mg/kg/injection, schedule: Q01DX001 (ip), vehicle: other); 220 % of control (dose: 62.0 mg/kg/injection, schedule: Q01DX001 (ip), vehicle: other); 307 % of control (dose: 93.0 mg/kg/injection, schedule: Q01DX001 (ip), vehicle: other); 168 % of control (dose: 187.0 mg/kg/injection, schedule: Q01DX001 (ip), vehicle: other).

Take `O=C(c1ccccc1)C1CCCS1(=O)=O` (stereo not drawn): the T/C was 100 % of control under setting [4]; 98 % of control under setting [5]; 96 % of control under setting [6]; 97 % of control under setting [7]; 100 % of control under setting [8].

Take `CC1CC(C)(C)[N+](C)=C(CC(C)(C)O)O1` (stereo not drawn): the T/C under setting [13] is 113 % of control.

Consider `COC(OC)C1=CC(=O)NC(NC(=O)C(Cl)Cl)N1` (stereo not drawn), for which the T/C was 92 % of control under setting [9], 98 % of control under setting [1] and 95 % of control under setting [2].

On to `CC(C)SP(=S)(C(C)C)C(C)C`, for which the T/C (dose: 100.0 mg/kg/injection, schedule: Q01DX001 (ip), vehicle: saline with Tween-80) was 115 % of control; the T/C (dose: 200.0 mg/kg/injection, schedule: Q01DX001 (ip), vehicle: saline with Tween-80) was 102 % of control; the T/C (dose: 400.0 mg/kg/injection, schedule: Q01DX001 (ip), vehicle: saline with Tween-80) is 94 % of control.

On to `O=S(=O)(O)C(O)C(Cl)(Cl)Cl` (stereo not drawn), for which the T/C is, setting by setting: under setting [1], 103 % of control; (dose: 100.0 mg/kg/injection, schedule: Q01DX009 (ip), vehicle: saline) 98 % of control; under setting [13], 107 % of control; under setting [2], 101 % of control; (dose: 200.0 mg/kg/injection, schedule: Q01DX009 (ip), vehicle: saline) 101 % of control; under setting [14], 96 % of control. The T/C reads like this: under setting [10], 98 % of control; (dose: 400.0 mg/kg/injection, schedule: Q01DX009 (ip), vehicle: saline) 98 % of control; under setting [15], 95 % of control.

For the molecule `COc1cccc2c1C(=O)c1c(OC)c(CO)cc(OC)c1C2=O`, the T/C runs as follows: (dose: 12.5 mg/kg/injection, schedule: Q01DX009 (ip), vehicle: water) 93 % of control; (dose: 25.0 mg/kg/injection, schedule: Q01DX009 (ip), vehicle: water) 91 % of control; (dose: 50.0 mg/kg/injection, schedule: Q01DX009 (ip), vehicle: water) 87 % of control; (dose: 100.0 mg/kg/injection, schedule: Q01DX009 (ip), vehicle: water) 97 % of control; (dose: 200.0 mg/kg/injection, schedule: Q01DX009 (ip), vehicle: water) 95 % of control.

For the molecule `CC(C)=CCC(=O)NC(=O)NS(=O)(=O)c1ccc(C)cc1`, the T/C runs as follows: (dose: 10.2 mg/kg/injection, schedule: Q01DX009 (ip), vehicle: Klucel (hydroxypropylcellulose) (HPC)) 100 % of control; under setting [3], 96 % of control; under setting [4], 100 % of control; under setting [5], 100 % of control; under setting [6], 102 % of control; under setting [8], 101 % of control.

As for `CCOP(=O)(OCC)OCCOCCOP(=O)(OCC)OCC`, the T/C by setting is: (dose: 8.8 mg/kg/injection, schedule: Q01DX Z (ip), vehicle: saline) 98 % of control; (dose: 13.3 mg/kg/injection, schedule: Q01DX Z (ip), vehicle: saline) 110 % of control; (dose: 20.0 mg/kg/injection, schedule: Q01DX Z (ip), vehicle: saline) 96 % of control.

Take `ClCCCCC(Cl)(Cl)Cl`: the T/C runs as follows: (dose: 75.0 mg/kg/injection, schedule: Q01DX009 (ip), vehicle: saline) 93 % of control; under setting [13], 102 % of control; (dose: 150.0 mg/kg/injection, schedule: Q01DX009 (ip), vehicle: saline) 91 % of control; under setting [14], 98 % of control; (dose: 300.0 mg/kg/injection, schedule: Q01DX009 (ip), vehicle: saline) 90 % of control; under setting [15], 108 % of control.

`CCOC(=O)CNC(=O)OCCSc1ccc(C)cc1`: the T/C under setting [11] was 97 % of control and the T/C under setting [12] was 93 % of control.

Consider `CC(C(=O)c1cccs1)C(O)(C(F)(F)F)C(F)(F)F` (stereo not drawn), for which the T/C by setting is: under setting [4], 95 % of control; under setting [6], 95 % of control; under setting [8], 103 % of control.

Values taken from PubChem BioAssay AID248 (DTP/NCI, 2004).
